# In patent US20230087196A1, “Application of circIKBKB Inhibitors and Test Reagents thereof in Diagnosis, Treatment and Prognosis Kits for Breast Cancer Bone Metastasis” (SUN YAT-SEN UNIVERSITY CANCER CENTER, priority 2021, published 2023):
# Assays:
# SCP2 cells [1] = test: In vivo established bone metastasis model: SCP2 cells into left ventricle of nude mice, eIF4A3-IN-2 started when bone-metastatic tumors formed; conditions: 1 mg/kg intragastric, started when BLI signal reached 2×10^7 p/sec/cm^2/sr, after 5 weeks treatment, vs vehicle
# Experimental: Experiment 3: SCP2 cells were injected into the left ventricle of nude mice (1*10^6 cells/mouse). eIF4A3-IN-2 (1 mg/kg) treatment via intragastric administration was started when bioluminescence signal of bone-metastatic tumors reached 2×10^7 p/sec/cm^2/sr. The mice were sacrificed after 60 days, and the hindlimbs of the mice were taken for μCT analysis, H&E and TRAP staining.
# SCP2 cells [2] = test: In vivo bone metastasis prevention model: SCP2 cells into left ventricle of nude mice, eIF4A3-IN-2 intragastric from the second day; conditions: 1 mg/kg intragastric from the second day after SCP2 injection, vs vehicle
# Experimental: Experiment 2: SCP2 cells were injected into the left ventricle of nude mice (1*10^6 cells/mouse), and eIF4A3-IN-2 (1 mg/kg) was administered to the mice by intragastric administration from the second day. The mice were sacrificed after 60 days, and hindlimbs of the mice were taken for μCT analysis, H&E and TRAP staining.
smiles,measurement,setting,value
O=C(c1cnn2cc(Br)ccc12)N1CCN(C(=O)c2ccc(Br)cc2)[C@@H](c2ccc(Cl)cc2)C1 [eIF4A3-IN-2],bone-metastatic tumor burden,SCP2 cells [1],decreased
same,onsets of bone metastases,SCP2 cells [1],dramatically reduced
same,number of TRAP+-osteoclasts in bone surface area,SCP2 cells [2],less
same,onsets of bone-metastases and bone-metastasis burden,SCP2 cells [2],significantly delayed
same,osteolytic areas,SCP2 cells [2],less
